In PMC4175002, “The Design and Synthesis of Potent and Selective Inhibitors of Trypanosoma brucei Glycogen Synthase Kinase 3 for the Treatment of Human African Trypanosomiasis” (Journal of Medicinal Chemistry, 2014):
One block for each compound: values may come before it.

Tests used:
[1] = target: HsCDK2/cyclin A (Homo sapiens, UniProt P24941); test: Radiometric Flashplate potency assay, HsCDK2/cyclin A; type: biochemical; conditions: for ratio HsCDK2/TbGSK3: ratio of IC50 values; for IC50: average of two or more experiments, 1 μM ATP
Description: (§1) For compound potency determinations, a radiometric 96-well Flashplate assay (PerkinElmer) was adopted. Compounds were solubilized in DMSO at a top concentration of 3 mM and serially diluted to achieve 10-point titration of final assay concentrations from 30 μM to 0.3 nM with a final DMSO concentration of 1% (v/v). The reaction mixtures contained 1 μM biotinylated GSP2 substrate, 1 μM ATP, 3.7 KBq/well [γ-33P]-ATP and 2.5 nM TbGSK3 in the TbGSK3 kinase assay buffer. GSK3 inhibitors were screened for selectivity assessment also against HsGSK3β. For HsGSK3 assay, the reaction mixes contained 1 μM biotinylated GSP2 substrate, 2 μM ATP, 7.4 KBq/well [γ-33P]-ATP and 15 nM HsGSK3β in the TbGSK3 kinase assay buffer (25 mM Tris-HCl, pH 7.5, 10 mM MgCl2, 5 mM DTT, 0.02% CHAPS, 2 U/mL heparin). For HsCDK2/cyclin A assay, the reaction mixtures contained 1 mM CDK5 biotinylated peptide substrate (Biotin-C6-PKTPKKAKKL), 1 μM ATP, 7.4 KBq/well [γ-^33P]-ATP and 2 nM HsCDK2/cyclin A in the kinase assay buffer (50 mM Tris-HCl, pH 7.5, 10 mM MgCl2, 2 mM DTT, 100 mM NaCl, 0.2 mM EGTA, 0.02% (v/v) Brij35).
For the HsCDK2 assay, the analysis was performed using two different standards (GW8510 and staurosporine) tested respectively five times in a single run and 19 times in 2 independent runs. This implies that a difference of >0.3 in pIC50 can be considered statistically significant for this assay.

[2] = target: HsGSK3β (Homo sapiens, UniProt P49841); test: Radiometric Flashplate potency assay, HsGSK3β; type: biochemical; conditions: for ratio HsGSK3β/TbGSK3: ratio of IC50 values
Description: as §1
This implies that a difference of >0.3 in pIC50 can be considered statistically significant for this assay.

[3] = test system: bloodstream form T. b. brucei; test: Trypanosome proliferation assay (resazurin); type: cell-based; conditions: Trypanosoma brucei, 72 h, concentration required to inhibit growth in culture by 50% over 72 h
Description: (§2) Measurement of inhibition of the proliferation of MRC5 (human lung fibroblast) cells and T. b. brucei bloodstream stage cells was performed using a modification of the cell viability assay previously described.[33] Compounds (50 μM to 0.5 nM) were incubated with 2 × 10^3 cells/well in 0.2 mL of the appropriate culture medium (MEM with 10% fetal bovine serum for MRC5 cells) in clear 96-well plates. Plates were incubated at 37 °C in the presence of 5% CO2 for 69 h. Resazurin was then added to a final concentration of 50 μM, and plates were incubated as above for a further 4 h before being read on a BioTek flx800 fluorescent plate reader.

[4] = target: T1, TbGSK3 short (Trypanosoma brucei brucei, UniProt Q388M1); test: Radiometric 96-well Flashplate potency assay, TbGSK3; type: biochemical; conditions: for TbGSK3 potency relative to 4f: more potent than the unsubstituted phenyl compound 4f; for decrease in potency against TbGSK3: relative to cyclohexane analogue 9c
T1 sequence (Q388M1 1-352): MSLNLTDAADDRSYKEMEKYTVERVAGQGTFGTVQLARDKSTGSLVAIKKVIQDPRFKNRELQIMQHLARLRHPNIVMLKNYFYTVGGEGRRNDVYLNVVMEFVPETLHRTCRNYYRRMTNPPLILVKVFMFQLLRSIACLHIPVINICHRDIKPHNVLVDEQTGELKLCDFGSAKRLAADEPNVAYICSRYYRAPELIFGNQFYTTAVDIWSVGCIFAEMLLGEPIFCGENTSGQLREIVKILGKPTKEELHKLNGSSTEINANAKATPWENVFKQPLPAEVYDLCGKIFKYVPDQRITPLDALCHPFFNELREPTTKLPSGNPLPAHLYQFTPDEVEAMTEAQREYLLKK
Description: as §1
The statistical significance of the compound potency (IC50) was based on the performance of standard molecules which have been tested to a high replication. In the case of TbGSK3 short assay, the standard compound GW8510 was tested 93 times across 9 independent runs. […] The minimum significant ratio (MSR) of 0.4 was evaluated considering the following formula: [drawing 1] where SD is the standard deviation and N the number of replicate values routinely used for the assay (2 in our case).[31] This implies that a difference of >0.4 in pIC50 can be considered statistically significant for this assay.

[5] = test system: MRC5 cells; test: MRC5 proliferation assay (resazurin); type: cell-based, human; conditions: T. b. brucei versus MRC5 EC50
Description: as §2

Chain of HsGSK3β (P49841 whole entry): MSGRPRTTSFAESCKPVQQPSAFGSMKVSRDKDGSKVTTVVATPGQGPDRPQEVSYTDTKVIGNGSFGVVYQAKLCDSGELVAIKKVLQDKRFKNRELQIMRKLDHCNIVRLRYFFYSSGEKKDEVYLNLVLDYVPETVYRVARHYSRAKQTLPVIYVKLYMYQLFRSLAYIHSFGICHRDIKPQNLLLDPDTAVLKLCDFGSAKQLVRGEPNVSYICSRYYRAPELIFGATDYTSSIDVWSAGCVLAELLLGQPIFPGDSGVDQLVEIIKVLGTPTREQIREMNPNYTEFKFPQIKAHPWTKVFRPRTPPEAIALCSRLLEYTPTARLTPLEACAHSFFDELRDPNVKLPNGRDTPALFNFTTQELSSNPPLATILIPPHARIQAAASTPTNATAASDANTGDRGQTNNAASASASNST

ratio HsCDK2/TbGSK3 [1]: <0.7
SMILES: CO[C@H]1CC[C@H](NC(=O)c2n[nH]cc2NC(=O)c2ccccc2F)CC1 [Compound 4g, 4-(2-Fluorobenzamido)-N-(4-methoxycyclohexyl)-1H-pyrazole-3-carboxamide]

ratio HsGSK3β/TbGSK3 [2]: <0.72
SMILES: CO[C@H]1CC[C@H](NC(=O)c2n[nH]cc2NC(=O)c2ccccc2C(F)(F)F)CC1 [Compound 4h, N-(4-Methoxycyclohexyl)-4-(2-(trifluoromethyl)benzamido)-1H-pyrazole-3-carboxamide]

ratio HsGSK3β/TbGSK3 [2]: <3.3 | TbGSK3 potency relative to 4f [4]: approximately 10 fold
SMILES: COc1ccccc1C(=O)Nc1c[nH]nc1C(=O)N[C@H]1CC[C@H](OC)CC1 [Compound 4j, 4-(2-Methoxybenzamido)-N-(4-methoxycyclohexyl)-1H-pyrazole-3-carboxamide]
EC50 [3]: < 1 µM

IC50 [1]: > 10 µM | ratio HsCDK2/TbGSK3 [1]: >910
SMILES: CO[C@H]1CC[C@H](NC(=O)c2n[nH]cc2NC(=O)c2ccccc2Nc2ccccc2)CC1 [Compound 4k, N-(4-Methoxycyclohexyl)-4-(2-(phenylamino)benzamido)-1H-pyrazole-3-carboxamide]

IC50 [1]: > 10 µM | ratio HsCDK2/TbGSK3 [1]: >150
SMILES: CO[C@H]1CC[C@H](NC(=O)c2n[nH]cc2NC(=O)c2ccccc2Nc2cccc(C)c2C)CC1 [Compound 4l, 4-(2-((2,3-Dimethylphenyl)amino)benzamido)-N-(4-methoxycyclohexyl)-1H-pyrazole-3-carboxamide]

selectivity over HsCDK2 ([1]; TbGSK3 versus HsCDK2, running text): > 1000 fold | selectivity over HsGSK3 ([2]; TbGSK3 versus HsGSK3, running text): > 10 fold | TbGSK3 potency relative to 4f [4]: approximately 10 fold
SMILES: COc1cc(OC)c(C(=O)Nc2c[nH]nc2C(=O)N[C@H]2CC[C@H](OC)CC2)c(OC)c1 [Compound 4n, N-(4-Methoxycyclohexyl)-4-(2,4,6-trimethoxybenzamido)-1H-pyrazole-3-carboxamide]
selectivity over MRC5 cells [5]: > 9 fold

ratio HsGSK3β/TbGSK3 [2]: <0.09
SMILES: CO[C@H]1CC[C@H](NC(=O)c2n[nH]cc2NC(=O)c2ccc(F)cc2F)CC1 [Compound 4o, 4-(2,4-Difluorobenzamido)-N-(4-methoxycyclohexyl)-1H-pyrazole-3-carboxamide]

ratio HsGSK3β/TbGSK3 [2]: <0.21
SMILES: CO[C@H]1CC[C@H](NC(=O)c2n[nH]cc2NC(=O)c2cc(F)cc(F)c2)CC1 [Compound 4p, 4-(3,5-Difluorobenzamido)-N-(4-methoxycyclohexyl)-1H-pyrazole-3-carboxamide]

ratio HsGSK3β/TbGSK3 [2]: <0.08
SMILES: CO[C@H]1CC[C@H](NC(=O)c2n[nH]cc2NC(=O)c2cc(Cl)cc(Cl)c2)CC1 [Compound 4q, 4-(3,5-Dichlorobenzamido)-N-(4-methoxycyclohexyl)-1H-pyrazole-3-carboxamide]

ratio HsGSK3β/TbGSK3 [2]: <0.31
SMILES: CO[C@H]1CC[C@H](NC(=O)c2n[nH]cc2NC(=O)c2ccc(OC(F)F)cc2)CC1 [Compound 4r, 4-(4-(Difluoromethoxy)benzamido)-N-(4-methoxycyclohexyl)-1H-pyrazole-3-carboxamide]

ratio HsGSK3β/TbGSK3 [2]: <0.26
SMILES: CO[C@H]1CC[C@H](NC(=O)c2n[nH]cc2NC(=O)c2ccc(N3CCCC3)cc2)CC1 [Compound 4s, N-(4-Methoxycyclohexyl)-4-(4-(pyrrolidin-1-yl)benzamido)-1H-pyrazole-3-carboxamide]
selectivity over MRC5 cells [5]: > 19 fold

ratio HsGSK3β/TbGSK3 [2]: <0.071
SMILES: CO[C@H]1CC[C@H](NC(=O)c2n[nH]cc2NC(=O)c2ccc(N3CCN(C)CC3)cc2)CC1 [Compound 4t, N-(4-Methoxycyclohexyl)-4-(4-(4-methylpiperazin-1-yl)benzamido)-1H-pyrazole-3-carboxamide]

ratio HsGSK3β/TbGSK3 [2]: <0.38
SMILES: CO[C@H]1CC[C@H](NC(=O)c2n[nH]cc2NC(=O)c2cc3ccccc3o2)CC1 [Compound 4u, 4-(Benzofuran-2-carboxamido)-N-(4-methoxycyclohexyl)-1H-pyrazole-3-carboxamide]

ratio HsGSK3β/TbGSK3 [2]: <0.080
SMILES: CO[C@H]1CC[C@H](NC(=O)c2n[nH]cc2NC(=O)c2cc3ccccn3n2)CC1 [Compound 4v, N-(3-((4-Methoxycyclohexyl)carbamoyl)-1H-pyrazol-4-yl)pyrazolo[1,5-a]pyridine-2-carboxamide]

ratio HsGSK3β/TbGSK3 [2]: <0.053
SMILES: CO[C@H]1CC[C@H](NC(=O)c2n[nH]cc2NC(=O)c2cnc3ccccn23)CC1 [Compound 4w, N-(3-((4-Methoxycyclohexyl)carbamoyl)-1H-pyrazol-4-yl)imidazo[1,2-a]pyridine-3-carboxamide]

SMILES: CO[C@H]1CC[C@H](NC(=O)c2n[nH]cc2NC(=O)c2c(C)nc3ccccn23)CC1 [Compound 4x, N-(3-((4-Methoxycyclohexyl)carbamoyl)-1H-pyrazol-4-yl)-2-methylimidazo[1,2-a]pyridine-3-carboxamide]
selectivity over MRC5 cells [5]: 12 fold

ratio HsCDK2/TbGSK3 [1]: >830
SMILES: COc1cccc(OC)c1C(=O)Nc1c[nH]nc1C(=O)NC1CC1 [Compound 9a, N-Cyclopropyl-4-(2,6-dimethoxybenzamido)-1H-pyrazole-3-carboxamide]

SMILES: COc1cccc(OC)c1C(=O)Nc1c[nH]nc1C(=O)NC1CCCCC1 [Compound 9c, N-Cyclohexyl-4-(2,6-dimethoxybenzamido)-1H-pyrazole-3-carboxamide]
selectivity over MRC5 cells [5]: > 7 fold

SMILES: COc1cccc(OC)c1C(=O)Nc1c[nH]nc1C(=O)NC1CCCCCC1 [Compound 9d, N-Cycloheptyl-4-(2,6-dimethoxybenzamido)-1H-pyrazole-3-carboxamide]
selectivity over MRC5 cells [5]: > 7 fold

decrease in potency against TbGSK3 [4]: 6 fold
SMILES: COc1cccc(OC)c1C(=O)Nc1c[nH]nc1C(=O)Nc1ccccc1 [Compound 9k, 4-(2,6-Dimethoxybenzamido)-N-phenyl-1H-pyrazole-3-carboxamide]

decrease in potency against TbGSK3 [4]: 6 fold
SMILES: COc1cccc(OC)c1C(=O)Nc1c[nH]nc1C(=O)Nc1ccncc1 [Compound 9l, 4-(2,6-Dimethoxybenzamido)-N-(pyridin-4-yl)-1H-pyrazole-3-carboxamide]

loss of activity against TbGSK3 ([4]; 2-pyridine analogue much less active, comparator not stated clearly (9c or 9k/9l)): 50 fold
SMILES: COc1cccc(OC)c1C(=O)Nc1c[nH]nc1C(=O)Nc1ccccn1 [Compound 9m, 4-(2,6-Dimethoxybenzamido)-N-(pyridin-2-yl)-1H-pyrazole-3-carboxamide]

ratio HsGSK3β/TbGSK3 [2]: 100
SMILES: CCCCCNC(=O)c1n[nH]cc1NC(=O)c1c(OC)cccc1OC [Compound 9s, 4-(2,6-Dimethoxybenzamido)-N-pentyl-1H-pyrazole-3-carboxamide]
selectivity over MRC5 cells [5]: > 7 fold

SMILES: COc1cccc(OC)c1C(=O)Nc1c[nH]nc1C(=O)NCCCOC(C)C [Compound 9t, 4-(2,6-Dimethoxybenzamido)-N-(3-isopropoxypropyl)-1H-pyrazole-3-carboxamide]
selectivity over MRC5 cells [5]: > 7 fold

ratio HsGSK3β/TbGSK3 [2]: <2.5
SMILES: COc1cccc(OC)c1C(=O)Nc1c[nH]nc1C(=O)N[C@H]1CC[C@H](OC)CC1 [Compound 9x]

average pIC50 HsGSK3 assay ([2]; standard compound tested 47 times across 5 independent runs, SD 0.21): 8.10 | average pIC50 TbGSK3 short assay ([4]; standard compound tested 93 times across 9 independent runs, SD 0.23): 8.26
SMILES: O=C1Nc2ccc3ncsc3c2/C1=C/Nc1ccc(S(=O)(=O)Nc2ccccn2)cc1 [GW8510, reference compound]
